Results reported in patent publication US10526343B2, “Heterocyclic systems and pharmaceutical applications thereof” (University of Sharjah, priority 2018, dated 2020).
Converted amounts (≈) assume the structure as drawn.

Experiments:
Assay type in all cases: cell-based
S. aureus (ATCC 25923) = assay: MIC by broth microdilution; details: Staphylococcus aureus, ATCC25923
Procedure: (§1) Bacteria of the genus Staphylococcus were selected for MIC investigation due to its clinical importance. Compounds showing activity against S. aureus (ATCC 25923) were tested against 10 multidrug-resistant strains of Staphylococcus species, including: clinical isolates methicillin-resistant Staphylococcus aureus (MRSA) strains MRSA-1, MRSA-2, and MRSA-3, and environmental isolates S. saprophyticus (strains UDH-1, UDH-2, UDH-3 and UDH-4), S. haemolyticus (strains UDH-6 and UDH-7), and S. epidermidis strain UDH-5.
(§2) A broth microdilution method was used to measure MIC according to the Clinical and Laboratory Standards Institute guidelines. Two-fold serial dilutions of the test compound (8 concentrations ranged between 100-0.78 μg/mL) were tested. Two reference antibiotics were used as quality controls (ciprofloxacin and amikacin). In each experiment, solvent (DMSO) was used as a negative control, un-treated control (composing of bacteria in Mueller-Hinton broth) was used as a growth control, blank (culture media alone) was used as sterility control. The 96-well microplate with the test compounds was incubated for 20 hours at 37° C. Turbidity in wells indicated bacterial growth. […] For the definite determination of MIC, CellTiter-Blue® Cell Viability Assay (Promega, USA) was used (as above). The MIC was defined as the lowest compound concentration that prevented the color change of the Cell Viability solution (absence of bacterial growth; thus, suspension remained blue in color). For the definite determination of MIC, CellTiter-Blue® Cell Viability Assay (Promega, USA) was used (as above). To each well of the 96-well microplate, 20 μL of the Cell Viability Assay solution was added to the overnight (20 hours culture) and incubated at 37° C. for 4 hours. After the end of the incubation, pink and blue colors were used to differentiate viable from dead bacterial suspensions, respectively. The MIC was defined as the lowest compound concentration that prevented the color change.

[1] = test system: UDH-5 (environmental isolate, S. epidermidis); assay: MIC by broth microdilution; details: Staphylococcus epidermidis
Procedure: as §1
(§3) All these strains were resistant to at least three antibiotics from different classes, as confirmed by a disk diffusion assay.
as §2

[2] = test system: UDH-3 (environmental isolate, S. saprophyticus); assay: MIC by broth microdilution; details: for MIC: Staphylococcus saprophyticus, environmental isolate
Procedure: as §1, §3, §2

[3] = test system: UDH-6 (environmental isolate, S. haemolyticus); assay: MIC by broth microdilution; details: Staphylococcus haemolyticus; environmental isolate
Procedure: as §1, §3, §2

[4] = test system: UDH-4 (environmental isolate, S. saprophyticus); assay: MIC by broth microdilution; details: Staphylococcus saprophyticus
Procedure: as §1, §3, §2

[5] = test system: UDH-2 (environmental isolate, S. saprophyticus); assay: MIC by broth microdilution; details: Staphylococcus saprophyticus
Procedure: as §1, §3, §2

[6] = test system: UDH-1 (environmental isolate, S. saprophyticus); assay: MIC by broth microdilution; details: for MIC: Staphylococcus saprophyticus, environmental isolate; for times lower than MIC of ciprofloxacin: UDH-1
Procedure: as §1, §3, §2

[7] = test system: UDH-7 (environmental isolate, S. haemolyticus); assay: MIC by broth microdilution; details: Staphylococcus haemolyticus; environmental isolate
Procedure: as §1, §3, §2

[8] = test system: MRSA-2 (clinical isolate, methicillin-resistant Staphylococcus aureus); assay: MIC by broth microdilution
Procedure: (§4) Bacteria of the genus Staphylococcus were selected for MIC investigation due to its clinical importance.
as §2, with “Two reference antibiotics were used as quality controls (ciprofloxacin and amikacin).” left out

[9] = test system: MRSA-1 (clinical isolate, methicillin-resistant Staphylococcus aureus); assay: MIC by broth microdilution; details: Staphylococcus aureus, MRSA; clinical isolate
Procedure: as §4
as §2, with “Two reference antibiotics were used as quality controls (ciprofloxacin and amikacin).” left out

[10] = test system: MRSA-3 (clinical isolate, methicillin-resistant Staphylococcus aureus); assay: MIC by broth microdilution
Procedure: as §4
as §2, with “Two reference antibiotics were used as quality controls (ciprofloxacin and amikacin).” left out

[11] = test system: Bacillus subtilis (environmental isolate); assay: Cell viability assay (resazurin) screening for antibacterial activity; parameters: key: Positive: A positive result indicates antibacterial activity expressed as growth inhibition; Negative: a negative result indicates no antibacterial activity expressed as bacterial growth at the tested concentration; details: single high concentration of 1 mg/mL
[12] = test system: Enterococcus faecalis (ATCC 29212); assay: as above; parameters: key: Positive: A positive result indicates antibacterial activity expressed as growth inhibition; Negative: a negative result indicates no antibacterial activity expressed as bacterial growth at the tested concentration; details: single high concentration of 1 mg/mL
[13] = test system: Escherichia coli (ATCC 25922); assay: as above; parameters: key: Positive: A positive result indicates antibacterial activity expressed as growth inhibition; Negative: a negative result indicates no antibacterial activity expressed as bacterial growth at the tested concentration; details: single high concentration of 1 mg/mL
[14] = test system: Staphylococcus aureus (ATCC 25923); assay: as above; parameters: key: Positive: A positive result indicates antibacterial activity expressed as growth inhibition; Negative: a negative result indicates no antibacterial activity expressed as bacterial growth at the tested concentration; details: single high concentration of 1 mg/mL
[15] = test system: Pseudomonas aeruginosa (ATCC 27853); assay: as above; parameters: key: Positive: A positive result indicates antibacterial activity expressed as growth inhibition; Negative: a negative result indicates no antibacterial activity expressed as bacterial growth at the tested concentration; details: single high concentration of 1 mg/mL

Row | MIC (S. aureus (ATCC 25923)) | MIC [1] | MIC [2] | MIC [4] | MIC [5] | MIC [6] | MIC [8] | MIC [9] | MIC [10] | times lower than MIC of ciprofloxacin ([2]; UDH-3) | times lower than MIC of ciprofloxacin [6] | Compound | MIC [3] | MIC [7] | antibacterial activity, Bacillus subtilis [11] | antibacterial activity, Enterococcus faecalis [12] | antibacterial activity, Escherichia coli [13] | antibacterial activity, Staphylococcus aureus [14] | antibacterial activity, Pseudomonas aeruginosa [15]
1 | 4 µg/mL (≈ 6.83 µM) | < 0.25 µg/mL | 0.5 µg/mL (≈ 0.854 µM) | < 0.25 µg/mL | 0.25 µg/mL (≈ 0.427 µM) | 8 µg/mL (≈ 13.7 µM) | 8 µg/mL (≈ 13.7 µM) | 16 µg/mL (≈ 27.3 µM) | 2 µg/mL (≈ 3.42 µM) | – | – | NCC[C@H](O)C(=O)N[C@@H]1C[C@H](N)[C@@H](O[C@H]2O[C@H](CN)[C@@H](O)[C@H](O)[C@H]2O)[C@H](O)[C@H]1O[C@H]1O[C@H](CO)[C@@H](O)[C@H](N)[C@H]1O [Amikacin, amikacin, reference compound] | 4 µg/mL (≈ 6.83 µM) | 4 µg/mL (≈ 6.83 µM) | – | – | – | – | –
2 | 6.25 µg/mL | 1.56 µg/mL | 3.12 µg/mL | 6.25 µg/mL | 6.25 µg/mL | 6.25 µg/mL | 6.25 µg/mL | 6.25 µg/mL | 3.12 µg/mL | approximately 20 times | approximately 10 times | CCN(CC)c1ccc2c(c1)OCC(CC(=O)OC)[n+]1c-2c(NC(C)(C)C)n2c(-c3ccc(OC)cc3)c(-c3ccc(OC)cc3)sc21 (centres unmarked) [Compound 1h] | 6.25 µg/mL | 12.5 µg/mL | Positive | Positive | Negative | Positive | Negative
3 | 6.25 µg/mL | 6.25 µg/mL | 12.5 µg/mL | 12.5 µg/mL | 12.5 µg/mL | 12.5 µg/mL | 12.5 µg/mL | 12.5 µg/mL | 12.5 µg/mL | – | – | COC(=O)CC1COc2c(cc3c4c2CCCN4CCC3)-c2c(NC(C)(C)C)n3c(-c4ccc(F)cc4)c(C)sc3[n+]21 (centres unmarked) [Compound 1n] | 25 µg/mL | 25 µg/mL | Positive | Positive | Negative | Positive | Negative
4 | 3.12 µg/mL | 1.56 µg/mL | 6.25 µg/mL | 6.25 µg/mL | 25 µg/mL | 12.5 µg/mL | 6.25 µg/mL | 6.25 µg/mL | 6.25 µg/mL | – | – | COC(=O)CC1COc2c(cc3c4c2CCCN4CCC3)-c2c(NC(C)(C)C)n3c(-c4cccc5c4OCCO5)csc3[n+]21 (centres unmarked) [Compound 1p] | 12.5 µg/mL | 12.5 µg/mL | Positive | Positive | Negative | Positive | Negative
5 | 3.12 µg/mL | 3.12 µg/mL | 12.5 µg/mL | 3.12 µg/mL | 6.25 µg/mL | 6.25 µg/mL | 6.25 µg/mL | 6.25 µg/mL | 6.25 µg/mL | – | approximately 10 times | COC(=O)CC1COc2c(cc3c4c2CCCN4CCC3)-c2c(NC(C)(C)C)n3c(-c4ccc(Br)cc4)csc3[n+]21 (centres unmarked) [Compound 1q] | 12.5 µg/mL | 12.5 µg/mL | Positive | Positive | Negative | Positive | Negative
6 | 12.5 µg/mL | 6.25 µg/mL | 12.5 µg/mL | 25 µg/mL | 25 µg/mL | 12.5 µg/mL | 12.5 µg/mL | 12.5 µg/mL | 12.5 µg/mL | – | – | CCOC(=O)c1sc2n(c(NC(C)(C)C)c3[n+]2C(CC(=O)OC)COc2c-3cc3c4c2CCCN4CCC3)c1-c1ccccc1 (centres unmarked) [Compound 1r] | 50 µg/mL | 50 µg/mL | Positive | Positive | Negative | Positive | Negative
7 | 6.25 µg/mL | 3.12 µg/mL | 12.5 µg/mL | 6.25 µg/mL | 25 µg/mL | 12.5 µg/mL | 6.25 µg/mL | 6.25 µg/mL | 6.25 µg/mL | – | – | COC(=O)CC1COc2c(cc3c4c2CCCN4CCC3)-c2c(NC(C)(C)C)n3c(-c4ccc(F)c(F)c4)csc3[n+]21 (centres unmarked) [Compound 1s] | 25 µg/mL | 25 µg/mL | Positive | Positive | Negative | Positive | Negative
8 | 3.12 µg/mL | 3.12 µg/mL | 6.25 µg/mL | 6.25 µg/mL | 6.25 µg/mL | 6.25 µg/mL | 3.12 µg/mL | 6.25 µg/mL | 3.12 µg/mL | – | approximately 10 times | COC(=O)CC1COc2c(cc3c4c2CCCN4CCC3)-c2c(NC(C)(C)C)n3c(-c4cc(OC)ccc4OC)csc3[n+]21 (centres unmarked) [Compound 1t] | 12.5 µg/mL | 12.5 µg/mL | Positive | Positive | Negative | Positive | Negative
9 | 3.12 µg/mL | 1.56 µg/mL | 6.25 µg/mL | 3.12 µg/mL | 6.25 µg/mL | 6.25 µg/mL | 6.25 µg/mL | 6.25 µg/mL | 6.25 µg/mL | – | approximately 10 times | COC(=O)CC1COc2c(cc3c4c2CCCN4CCC3)-c2c(NC(C)(C)C)n3c(-c4ccc(Cl)cc4Cl)c(C)sc3[n+]21 (centres unmarked) [Compound 1x] | 6.25 µg/mL | 12.5 µg/mL | Positive | Positive | – | Positive | Negative
